The record followed here is PubChem BioAssay AID1996.

Each structure is given as a SMILES string. Values after ≈ are worked out from the molar mass of the structure shown. Bounds are passed on as bounds.

The conditions of this series: buffer; pH 7.4; 200.0 µM.
For the compound `Cc1cc(Cl)ccc1NC(=O)CN1CCCC1`, the kinetic solubility (usually the concentration staying in solution when a stock, usually in DMSO, is diluted into the medium) was over 37.9 µg/mL.
With `COc1ccccc1NC(=O)O/N=C(\N)c1ccccc1` the figure was over 42.8 µg/mL.
In the case of `CCN(Cc1ccncc1)C(=S)NCc1ccccc1` it was 42.1 µg/mL (≈ 148 µM); in that of `CC(=O)c1ccc(N2CCN(C(=O)c3ccc(S(=O)(=O)NCc4ccco4)cc3)CC2)cc1`, 4.9 µg/mL (≈ 10.5 µM).
`Cc1ccccc1C(=O)NCC(=O)c1ccccc1`: the solubility (kinetic) was over 38 µg/mL.
Take `O=c1[nH]c(=O)n(CC2CCCO2)c(O)c1/C=C1\C=Nc2ccccc21` (configuration not stated): the solubility (kinetic) was over 50.9 µg/mL.
With `CN(C(=O)CSc1nnc(-c2ccc(F)cc2)n1C)C1CCS(=O)(=O)C1` (configuration not stated) the figure was over 59.8 µg/mL.
In turn, `C=C(C)c1cccc(C(C)(C)NC(=O)N2CCN(c3ccccc3)CC2)c1` came in with a solubility (kinetic) of 0.3 µg/mL (≈ 0.825 µM).
`COC(=O)c1cc(-c2ccc(OC)cc2)on1` displayed a kinetic solubility of 9.7 µg/mL (≈ 41.6 µM).
In turn, `CC1CCCCC12NC(=O)N(CC(=O)OCc1c(F)cccc1Cl)C2=O` (configuration not stated) yielded a kinetic solubility of 53.3 µg/mL (≈ 139 µM).
In the case of `CCN(C(=O)CN1CCCCCC1)c1c(N)n(Cc2ccccc2)c(=O)[nH]c1=O` it was over 59.9 µg/mL.
With `Oc1cccc(Nc2nc(-c3ccccc3)nc3ccccc23)c1`, the solubility (kinetic) is 2.2 µg/mL (≈ 7.02 µM).
`CC(=O)c1ccc(NC(=S)NCc2ccco2)cc1` registered a kinetic solubility of over 41.2 µg/mL.
In the case of `CC(C)CCN1CCN(C/C=C/c2ccco2)CC1CCO` (configuration not stated) it was 45.3 µg/mL (≈ 148 µM); in that of `COc1cccc(-n2c(=S)[nH]c3c(oc4ccccc43)c2=O)c1`, 45.3 µg/mL (≈ 140 µM); in that of `O=C(O)CN1CCN(Cc2cccc(Cl)c2)C1=O`, over 40.3 µg/mL.
With `N/C(=N/[N+](=O)[O-])N1CCN(C(=O)Oc2ccc([N+](=O)[O-])cc2)CC1` the figure was over 50.7 µg/mL; with `Cc1cc(N)nc(SCC(=O)N2C(C)CCCC2C)n1` (configuration not stated), 38.3 µg/mL (≈ 130 µM).
In the case of `O=C1c2ccccc2C(=O)N1Cc1cc(Cl)c(O)c([N+](=O)[O-])c1` it was over 49.9 µg/mL; in that of `NC(=O)[C@@H]1CCCN1Cc1nc(Cc2ccccc2F)no1`, over 45.6 µg/mL; in that of `Cn1c(=O)c(C(=O)NCCc2ccccc2)c(O)c2ccccc21`, 0.5 µg/mL (≈ 1.55 µM).
Turning to `Cc1ccc(NC(=O)c2ccc3c(c2)CCN3S(C)(=O)=O)cc1C`, the kinetic solubility is 2 µg/mL (≈ 5.81 µM).
On to `COc1ccc(NC(=O)N2CCCC(c3ccccc3)C2)cc1` (configuration not stated), for which the kinetic solubility stood at 27.8 µg/mL (≈ 89.6 µM).
In the case of `COc1ccccc1OCC(=O)Nc1ccc(NC(=O)COc2ccccc2OC)cc1` it was 1.4 µg/mL (≈ 3.21 µM).
In the case of `COc1cc(C(=S)N2CCOCC2)ccc1OC(=O)c1ccccc1C` it was 10.3 µg/mL (≈ 27.7 µM); in that of `COc1ccccc1C(=O)NCCC(=O)Nc1ccc(C)cn1`, 43.7 µg/mL (≈ 139 µM); in that of `O=C(NC(Cc1ccccc1)C(=O)NC1CC1)OCc1ccccc1` (configuration not stated), 11.5 µg/mL (≈ 34 µM).
`Cc1nc(Sc2ccc(Cl)cc2)c(C#N)c(C)c1[N+](=O)[O-]` gave a kinetic solubility of under 0.2 µg/mL.
In the case of `CCCc1cc(=O)[nH]c(SCC(=O)Nc2cc(S(=O)(=O)N(CC)c3ccccc3)ccc2Cl)n1`, the solubility (kinetic) was determined as 9.8 µg/mL (≈ 18.8 µM).
As to `CCOC(=O)c1cccc(N2C(=O)C3C4C=CC(CC4)C3C2=O)c1` (configuration not stated), the solubility (kinetic) came to 3.7 µg/mL (≈ 11.4 µM).
In the case of `CC(=O)Nc1ccc(Oc2cncc(Cl)c2)nc1` it was over 39.6 µg/mL; in that of `O=C(Oc1ccccc1)N1CCN(c2ccccc2F)CC1`, 39.5 µg/mL (≈ 132 µM); in that of `CNc1nc(N)c([N+](=O)[O-])c(NC2CCCCC2)n1`, 1.7 µg/mL (≈ 6.38 µM).
Compound `CCOC(=O)N1CCN(Cc2ccc3ccccc3c2)CC1` yielded a kinetic solubility of 26.9 µg/mL (≈ 90.2 µM).
With `COc1ccc(CCc2nc(-c3cccs3)no2)cc1` the figure was 2.3 µg/mL (≈ 8.03 µM).
In the case of `CC1CC(C)CN(C(=O)COC(=O)c2cncc(Br)c2)C1` (configuration not stated) it was 42.4 µg/mL (≈ 119 µM); in that of `Cc1ccc(NC(=O)CCc2nc3ccccc3s2)c(O)c1`, 8.9 µg/mL (≈ 28.5 µM); in that of `CC(NCc1ccc(F)cc1)C(=O)NC1CCCCC1.O=C(O)C(=O)O` (configuration not stated), over 55.3 µg/mL.
`CCNc1nc2c(c(=O)[nH]c(=O)n2C)n1CCCc1ccccc1` displayed a solubility (kinetic) of 20.8 µg/mL (≈ 63.5 µM).
In the case of `CN(c1ccccc1)S(=O)(=O)c1ccc(C(=O)N2CCN(c3ccccc3Cl)CC2)cc1` it was 6.8 µg/mL (≈ 14.5 µM).
With `O=C(CCCc1ccccc1)NCc1ccc2c(c1)OCO2` the figure was over 44.6 µg/mL; with `Nc1c(Br)c(=O)[nH]c(=O)n1-c1ccccc1`, over 42.3 µg/mL; with `CN(C)C(=O)c1cc(C(=O)c2ccc(Cl)cc2Cl)c[nH]1`, 23.4 µg/mL (≈ 75.2 µM).
With `O=C1CCCN1CCCNC(=S)Nc1ccc(F)c(Cl)c1` the figure was over 49.5 µg/mL; with `O=C(Nc1ccccc1Cl)NC1(C(=O)N2CCOCC2)CCCCC1`, 25.8 µg/mL (≈ 70.5 µM).
`Cc1onc(-c2c(F)cccc2Cl)c1C(=O)Nc1cccc(S(=O)(=O)N2CCOCC2)c1` had a solubility (kinetic) of 37.8 µg/mL (≈ 78.8 µM).
In the case of `O=C(c1ccccc1F)N1CCN=C1c1ccccc1` it was 36.2 µg/mL (≈ 135 µM); in that of `O=C(COc1ccccc1[N+](=O)[O-])NC1CC1`, 29.1 µg/mL (≈ 123 µM); in that of `COCC(C)NC(=S)NCCc1ccc(Cl)cc1Cl` (configuration not stated), over 48.2 µg/mL.
In the case of `CC(C)C(=O)Nc1ccc2c(c1)nc(CCN1CCCCC1)n2C` it was over 49.3 µg/mL; in that of `CCCCCC(=O)Nc1ccc(S(=O)(=O)Nc2nccc(C)n2)cc1`, over 54.4 µg/mL; in that of `O=C(COC(=O)c1ccccc1)NC1CCCCCC1`, 39.7 µg/mL (≈ 144 µM).
In the case of `O=[N+]([O-])c1cc([N+](=O)[O-])c2cc3ccccc3nc2c1` it was 0.2 µg/mL (≈ 0.743 µM); in that of `CCOC(=O)Cc1cnc(NC(=O)CSc2nc(N)cc(=O)[nH]2)s1`, 12.6 µg/mL (≈ 34.1 µM); in that of `CCNC(=O)C(C)Oc1ccc(Cl)cc1Cl` (configuration not stated), over 39.3 µg/mL.
`O=C(COc1ccc2c3c(c(=O)oc2c1)CCC3)N1CCCC1` came in with a kinetic solubility of 15.8 µg/mL (≈ 50.4 µM).
With `Cc1nc(-c2ccc(S(=O)(=O)N3CCOCC3)cc2)cs1` the figure was 20.7 µg/mL (≈ 63.8 µM); with `O=C(O)/C=C/c1cnc2ccccc2n1`, over 30 µg/mL; with `O=C(CNC(=O)C1CCCC1)Nc1ccccc1Br`, over 48.8 µg/mL.
For `COC(=O)/C(C#N)=C/N(C)C`, the kinetic solubility is over 23.1 µg/mL.
In the case of `Cn1c(CN2CCN(CCO)CC2)c(C#N)c2ccccc21` it was over 44.8 µg/mL.
As to `Cc1ccc(/C=C/C(=O)OCC(=O)Nc2cccnc2Cl)o1`, the kinetic solubility came to 11.8 µg/mL (≈ 36.8 µM).
In turn, `Cl.NCc1ccccc1` returned a solubility (kinetic) of over 21.5 µg/mL.
In turn, `O=C(O)c1ccccc1CSc1ncccc1C(=O)O` yielded a kinetic solubility of over 43.4 µg/mL.
In the case of `COc1ccc(OCc2cc(=O)[nH]c3ccccc23)cc1` it was 2.9 µg/mL (≈ 10.3 µM); in that of `COC(=O)c1ccc(CNC(=O)COC(=O)/C=C/c2ccc(OC)c(OC)c2)cc1`, 6.6 µg/mL (≈ 16 µM); in that of `Cc1ccccc1NC(=O)c1cccc(NC(=O)c2c(C(=O)O)cccc2[N+](=O)[O-])c1`, 56.1 µg/mL (≈ 134 µM).
With `Cc1ccc2c(c1)N(CC(=O)NCc1ccco1)C(=O)C(C(C)C)O2` (configuration not stated) the figure was 22.8 µg/mL (≈ 66.6 µM).
With `Clc1cccc(Sc2ccc(-c3ccccn3)s2)c1` the figure was under 0.7 µg/mL; with `O=C(NC1C2CC3CC(C2)CC1C3)c1ccc(Br)o1` (configuration not stated), 27.8 µg/mL (≈ 85.7 µM); with `O=C(NCc1ccc(F)cc1)N1CCc2ccccc2C1`, 39.3 µg/mL (≈ 138 µM).
Turning to `CC(C)(C)C(=O)NC1CC2CCCC(C1)N2C(=O)Nc1ccccc1` (configuration not stated), the solubility (kinetic) was 12.8 µg/mL (≈ 37.3 µM).
On to `CCCCN(CC)C(=O)c1ccc(Cl)cc1`, for which the solubility (kinetic) was found to be 29.5 µg/mL (≈ 123 µM).
With `O=C(CC1OC(=O)c2ccccc21)Nc1cc(Cl)ccc1N1CCOCC1` (configuration not stated) the figure was 5.8 µg/mL (≈ 15 µM); with `Cc1ccc2oc(/N=C(\N)NC(=O)C(C)(C)C)nc2c1`, 1.2 µg/mL (≈ 4.37 µM).
With `CCOC(=O)N1CCN(c2ccncc2S(=O)(=O)N2CCCCC2)CC1`, the solubility (kinetic) was over 57.4 µg/mL.
In the case of `Cc1cccc(N(C)S(=O)(=O)c2csc(C(N)=O)c2)c1` it was over 46.6 µg/mL; in that of `CC(C)NCC#CCOc1ccc(Cl)cc1.O=C(O)C(=O)O`, 42.6 µg/mL; in that of `O=C(Nc1ncccn1)c1cccc(Cl)c1`, 23.6 µg/mL (≈ 101 µM).
With `Cc1[nH]c2ccc(C(=O)NCCN3CCOCC3)cc2c1C` the figure was over 45.2 µg/mL.
In the case of `O=C(Nc1ccc(NC(=O)C2CCCCC2)nc1)c1cccc(F)c1` it was 1.2 µg/mL (≈ 3.52 µM); in that of `COc1ccccc1C(=O)NCCC(=O)N1CCCC(C)C1` (configuration not stated), over 45.7 µg/mL; in that of `Cc1ccc(C)c(/C=C2\N=C(c3ccccc3F)OC2=O)c1`, 11.8 µg/mL (≈ 40 µM).
In turn, `CCOC(=O)Cn1nc2sc3ccccc3n2c(=O)c1=O` showed a solubility (kinetic) of over 45.8 µg/mL.
For the compound `Cc1nc2c(C)cccc2c2c1COC2`, the solubility (kinetic) is 18.4 µg/mL (≈ 92.3 µM).
In the case of `O=S(=O)(Cc1ccccc1)NCCc1cccc(Cl)c1` it was 40.5 µg/mL (≈ 131 µM); in that of `Cl.O=C(c1cc(-c2cccc3ccccc23)nc2ccccc12)N1CCN(CCO)CC1`, over 67.2 µg/mL.
With `CCOP(=O)(OCC)C(NC(=O)c1cccc(C)c1)C(Cl)(Cl)Cl` (configuration not stated) the figure was 56.3 µg/mL (≈ 140 µM).
`COc1ccc(C(=O)COC(=O)c2cnc(C)cn2)c(OC)c1`: the solubility (kinetic) was over 47.4 µg/mL.
In the case of `COc1cc(OC)c(C(=S)N2CCCC2)cc1OC` it was 38.9 µg/mL (≈ 138 µM); in that of `NC1=NC(=O)C(Cc2ccc(OC(F)(F)F)cc2)S1` (configuration not stated), over 43.5 µg/mL; in that of `CCNC(=S)N1CCC(Cc2ccccc2)CC1`, 35.4 µg/mL (≈ 135 µM).
In turn, `CC(C)[C@H](NC(=O)NCc1ccc(F)cc1)C(=O)O` displayed a kinetic solubility of over 40.2 µg/mL.
With `N#C/C(=C\c1c(F)cccc1Cl)C(=O)NC1CC1` the figure was over 39.7 µg/mL; with `O=C(COC(=O)[C@@H]1CCCN1C(=O)c1cccs1)Nc1ccc(Br)cc1`, 2.4 µg/mL (≈ 5.49 µM); with `CCOC(=O)Cc1csc(-n2sc3ccccc3c2=O)n1`, 29.8 µg/mL (≈ 93 µM).
On to `O=C(NC1CC1)c1cc2cc(Br)ccc2s1`, for which the kinetic solubility was under 0.6 µg/mL.
In the case of `S=C(NCc1ccco1)Nc1ccc2c(c1)OCCO2` it was over 43.6 µg/mL; in that of `c1ccc2c(c1)CC(CN1CCNCC1)O2` (configuration not stated), over 32.7 µg/mL; in that of `CC1CC2c3cccc(C(=O)O)c3C(=O)N2c2ccc(Cl)cc21` (configuration not stated), over 49.2 µg/mL.
On to `COc1ccc(Cl)cc1NC(=O)Cn1c(=O)oc2ccccc21`, for which the solubility (kinetic) was determined as 1.2 µg/mL (≈ 3.61 µM).
With `CCCCN(C(=O)CSc1nc(CCC)cc(=O)[nH]1)c1c(N)n(Cc2ccccc2)c(=O)[nH]c1=O` the figure was over 74.8 µg/mL.
